Test results reported in article PMC11605156, “Triterpenoids from Ganoderma lucidum inhibit cytochrome P450 enzymes interfering with the metabolic process of specific clinical drugs” (Frontiers in Pharmacology, 2024).

How the values were obtained:
[1] = molecular target: CYP2C9 (Homo sapiens, UniProt P11712); assay: CYP2C9 inhibition, probe/drug metabolism in human liver microsomes; conditions: diclofenac 4 μM, 30 min; for activity at 30 min: human, human liver microsomes, pH 7.4, probe diclofenac 4 μM, Residual activity (%) CYP2C9, HLM 0.5 mg/mL
Protocol: (§1) The total volume of the in vitro metabolic incubation system is 200 μL. The probe substrate concentration in the system is shown in Supplementary Table S1. […] The reaction sample was preheated in a constant temperature mixer at 37°C. Then NADP^+ was added to the system to initiate the reaction. The reaction time is 30 min, and 100 μL acetonitrile will be added on time to quickly terminate the reaction, followed by centrifugation at 4°C and 20,000 g for 20 min. The supernatant was analyzed using liquid chromatography tandem mass spectrometry (LC-MS/MS), and the activity of CYP enzymes was evaluated by the generation of probe metabolites. The mass spectrometry information of probe substrates is shown in Supplementary Table S3.
(§2) The isolated triterpenoids (1–66) were used to establish a compounds library. The inhibitory effects of 66 triterpenoids from G. lucidum on seven subtypes of CYP enzymes (CYP1A2, 2A6, 2D6, 2B6, 2C9, 2C19, 3A4) were evaluated followed the above-mentioned experimental procedures.
(§3) For 16 clinical drugs metabolized by CYP enzymes, potential DDI studies were conducted on triterpenoids (6, 25) of G. lucidum, and IC50 values were measured.
(§4) Clinical drugs: Phenacetin, melatonin, clozapine and riluzole are metabolized by CYP1A2. Bupropion, artemisinin, efavirenz and sertraline are metabolized by CYP2B6. Diclofenac, valsartan, glimepiride and glibenclamide are metabolized by CYP2C9. Midazolam, imatinib, simvastatin and diltiazem are metabolized by CYP3A4.
(§5) Table S1. The information of probes for CYPs activity assay
(§6) Table S2. Information of clinical drugs

[2] = molecular target: T1, CYP2B6 (Homo sapiens, UniProt P20813); assay: CYP2B6 inhibition, probe/drug metabolism in human liver microsomes; conditions: bupropion 75 μM, 30 min; for activity at 30 min: human, human liver microsomes, pH 7.4, probe bupropion 75 μM, Residual activity (%) CYP2B6, HLM 0.5 mg/mL
T1 sequence (P20813 1-491): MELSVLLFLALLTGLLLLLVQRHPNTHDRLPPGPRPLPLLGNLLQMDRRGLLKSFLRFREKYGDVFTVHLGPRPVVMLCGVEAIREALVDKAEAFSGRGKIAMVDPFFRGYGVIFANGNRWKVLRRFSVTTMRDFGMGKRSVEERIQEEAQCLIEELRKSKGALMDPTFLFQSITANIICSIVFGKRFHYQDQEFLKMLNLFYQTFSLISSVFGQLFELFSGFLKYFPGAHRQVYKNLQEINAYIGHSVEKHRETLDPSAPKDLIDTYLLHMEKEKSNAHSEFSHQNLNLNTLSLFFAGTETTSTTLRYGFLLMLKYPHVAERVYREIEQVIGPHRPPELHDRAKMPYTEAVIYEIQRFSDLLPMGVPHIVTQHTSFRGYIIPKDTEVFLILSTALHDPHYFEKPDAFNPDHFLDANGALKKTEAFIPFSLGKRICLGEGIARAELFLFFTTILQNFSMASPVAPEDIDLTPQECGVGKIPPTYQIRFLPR
Protocol: as §1, §2, §3, §4, §5, §6

[3] = molecular target: CYP2D6 (Homo sapiens, UniProt P10635); assay: CYP2D6 inhibition, dextromethorphan probe in human liver microsomes; conditions: for activity at 30 min: human, human liver microsomes, pH 7.4, probe dextromethorphan 5 μM, Residual activity (%) CYP2D6, HLM 0.5 mg/mL
Protocol: as §1, §2, §5

[4] = molecular target: T2, CYP2A6 (Homo sapiens, UniProt P11509); assay: CYP2A6 inhibition, coumarin probe in human liver microsomes; conditions: for activity at 30 min: human, human liver microsomes, pH 7.4, probe coumarin 2 μM, Residual activity (%) CYP2A6, HLM 0.5 mg/mL
T2 sequence (P11509 1-494): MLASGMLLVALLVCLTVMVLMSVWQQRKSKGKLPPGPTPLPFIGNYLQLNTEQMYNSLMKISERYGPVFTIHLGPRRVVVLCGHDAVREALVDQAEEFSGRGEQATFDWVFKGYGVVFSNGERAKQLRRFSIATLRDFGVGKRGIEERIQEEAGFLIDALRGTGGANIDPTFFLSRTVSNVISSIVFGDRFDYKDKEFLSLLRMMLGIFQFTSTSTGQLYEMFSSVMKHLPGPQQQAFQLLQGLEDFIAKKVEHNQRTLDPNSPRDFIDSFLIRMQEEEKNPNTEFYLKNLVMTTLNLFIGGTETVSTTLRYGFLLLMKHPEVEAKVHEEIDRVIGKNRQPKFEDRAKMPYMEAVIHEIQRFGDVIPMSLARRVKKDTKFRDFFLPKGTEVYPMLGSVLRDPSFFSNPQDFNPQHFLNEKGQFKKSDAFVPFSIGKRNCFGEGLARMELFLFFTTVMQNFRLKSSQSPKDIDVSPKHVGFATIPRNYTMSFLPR
Protocol: as §1, §2, §5

[5] = molecular target: CYP2C19 (Homo sapiens, UniProt P33261); assay: CYP2C19 inhibition, S-mephenytoin probe in human liver microsomes; conditions: S-mephenytoin 50 μM, 30 min; for activity at 30 min: human, human liver microsomes, pH 7.4, probe S-mephenytoin 50 μM, Residual activity (%) CYP2C19, HLM 0.5 mg/mL
Protocol: as §1, §2, §5

[6] = molecular target: CYP3A4 (Homo sapiens, UniProt P08684); assay: CYP3A4 inhibition, probe/drug metabolism in human liver microsomes; conditions: midazolam 5 μM, 30 min; for activity at 30 min: human, human liver microsomes, pH 7.4, probe midazolam 5 μM, Residual activity (%) CYP3A4, HLM 0.5 mg/mL
Protocol: as §1, §2, §3, §4, §5, §6

[7] = molecular target: T3, CYP1A2 (Homo sapiens, UniProt P05177); assay: CYP1A2 inhibition, probe/drug metabolism in human liver microsomes (LC-MS/MS); conditions: for IC50: IC50 against CYP 1A2, substrate phenacetin 40 μM, HLM; for activity at 30 min: human, human liver microsomes, pH 7.4, probe phenacetin 40 μM, Residual activity (%) CYP1A2, HLM 0.5 mg/mL
T3 sequence (P05177 1-516): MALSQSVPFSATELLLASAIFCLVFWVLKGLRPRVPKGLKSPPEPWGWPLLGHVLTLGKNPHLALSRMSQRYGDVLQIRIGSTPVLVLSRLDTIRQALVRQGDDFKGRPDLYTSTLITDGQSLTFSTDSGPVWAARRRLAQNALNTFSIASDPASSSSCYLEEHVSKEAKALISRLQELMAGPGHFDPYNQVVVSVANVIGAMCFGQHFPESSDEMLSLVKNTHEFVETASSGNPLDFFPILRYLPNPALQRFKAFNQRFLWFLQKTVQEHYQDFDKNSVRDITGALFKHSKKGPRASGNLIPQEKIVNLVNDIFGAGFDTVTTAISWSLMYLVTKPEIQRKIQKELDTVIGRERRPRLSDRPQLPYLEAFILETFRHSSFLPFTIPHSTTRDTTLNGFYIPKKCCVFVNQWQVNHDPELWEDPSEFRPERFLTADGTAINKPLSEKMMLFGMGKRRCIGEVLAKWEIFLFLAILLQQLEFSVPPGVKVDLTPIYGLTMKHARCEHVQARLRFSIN
Protocol: as §1, §2, §3, §4, §5, §6

Sequence of CYP3A4 (P08684 whole entry): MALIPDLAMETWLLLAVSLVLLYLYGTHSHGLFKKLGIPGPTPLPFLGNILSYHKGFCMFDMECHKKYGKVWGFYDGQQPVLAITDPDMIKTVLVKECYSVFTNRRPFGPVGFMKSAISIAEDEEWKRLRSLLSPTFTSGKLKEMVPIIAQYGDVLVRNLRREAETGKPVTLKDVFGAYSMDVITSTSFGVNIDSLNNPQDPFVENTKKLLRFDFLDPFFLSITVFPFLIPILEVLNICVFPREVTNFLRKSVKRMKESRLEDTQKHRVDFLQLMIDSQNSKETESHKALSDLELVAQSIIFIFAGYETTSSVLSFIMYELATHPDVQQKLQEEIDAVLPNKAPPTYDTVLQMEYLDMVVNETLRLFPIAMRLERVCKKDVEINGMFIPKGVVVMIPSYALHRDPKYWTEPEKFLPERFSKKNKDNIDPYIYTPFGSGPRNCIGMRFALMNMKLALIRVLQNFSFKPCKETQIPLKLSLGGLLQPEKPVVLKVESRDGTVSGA
Sequence of CYP2C9 (P11712 whole entry): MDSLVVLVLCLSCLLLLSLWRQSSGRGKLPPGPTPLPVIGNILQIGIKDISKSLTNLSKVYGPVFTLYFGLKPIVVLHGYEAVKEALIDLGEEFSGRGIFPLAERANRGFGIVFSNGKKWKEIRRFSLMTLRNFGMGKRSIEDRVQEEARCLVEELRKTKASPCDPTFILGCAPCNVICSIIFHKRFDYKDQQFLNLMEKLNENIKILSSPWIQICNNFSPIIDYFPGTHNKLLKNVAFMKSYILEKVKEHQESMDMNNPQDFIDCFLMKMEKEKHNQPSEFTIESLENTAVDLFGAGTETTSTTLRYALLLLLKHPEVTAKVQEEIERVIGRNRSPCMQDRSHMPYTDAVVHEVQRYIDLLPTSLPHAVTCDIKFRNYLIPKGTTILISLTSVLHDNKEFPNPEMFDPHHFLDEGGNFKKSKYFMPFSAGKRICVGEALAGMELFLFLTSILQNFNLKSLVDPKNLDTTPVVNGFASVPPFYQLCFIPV
Sequence of CYP2D6 (P10635 whole entry): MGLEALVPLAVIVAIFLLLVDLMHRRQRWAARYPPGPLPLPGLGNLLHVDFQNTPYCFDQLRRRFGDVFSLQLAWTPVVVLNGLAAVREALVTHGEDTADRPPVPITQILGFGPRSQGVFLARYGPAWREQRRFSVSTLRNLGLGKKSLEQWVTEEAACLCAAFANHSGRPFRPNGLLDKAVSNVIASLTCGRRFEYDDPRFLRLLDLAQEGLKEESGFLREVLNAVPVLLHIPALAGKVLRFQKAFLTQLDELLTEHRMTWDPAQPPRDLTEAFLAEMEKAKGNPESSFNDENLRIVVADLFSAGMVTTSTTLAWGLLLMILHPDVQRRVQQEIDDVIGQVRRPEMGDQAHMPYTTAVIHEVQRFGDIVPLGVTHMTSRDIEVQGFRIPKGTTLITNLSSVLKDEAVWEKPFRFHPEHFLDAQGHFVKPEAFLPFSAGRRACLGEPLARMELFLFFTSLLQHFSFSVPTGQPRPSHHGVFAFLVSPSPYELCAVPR
Sequence of CYP2C19 (P33261 whole entry): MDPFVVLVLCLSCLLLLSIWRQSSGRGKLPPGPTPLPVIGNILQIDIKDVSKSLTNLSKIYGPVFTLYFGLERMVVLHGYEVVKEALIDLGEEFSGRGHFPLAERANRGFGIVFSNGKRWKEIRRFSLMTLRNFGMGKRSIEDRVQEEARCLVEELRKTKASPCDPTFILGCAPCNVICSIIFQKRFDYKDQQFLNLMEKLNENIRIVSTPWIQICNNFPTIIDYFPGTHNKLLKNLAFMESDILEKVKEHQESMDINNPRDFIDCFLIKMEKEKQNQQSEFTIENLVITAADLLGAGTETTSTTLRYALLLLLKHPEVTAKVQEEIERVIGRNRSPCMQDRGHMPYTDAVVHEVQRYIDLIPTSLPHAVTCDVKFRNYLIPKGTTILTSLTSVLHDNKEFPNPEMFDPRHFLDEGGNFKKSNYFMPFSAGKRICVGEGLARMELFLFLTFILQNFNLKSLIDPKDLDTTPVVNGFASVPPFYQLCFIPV

SMILES | Residual activity (%) CYP2C9 ([1]; HLM 0.5 mg/mL) | Residual activity (%) CYP2B6 ([2]; HLM 0.5 mg/mL) | Residual activity (%) CYP2D6 ([3]; HLM 0.5 mg/mL, dextromethorphan 5 μM, 30 min) | Residual activity (%) CYP2A6 ([4]; HLM 0.5 mg/mL, coumarin 2 μM, 30 min) | Residual activity (%) CYP2C19 ([5]; HLM 0.5 mg/mL) | Residual activity (%) CYP3A4 ([6]; HLM 0.5 mg/mL) | Residual activity (%) CYP1A2 ([7]; HLM 0.5 mg/mL, phenacetin 40 μM, 30 min) | activity at 30 min [1] | activity at 30 min [2] | activity at 30 min [3] | activity at 30 min [4] | activity at 30 min [5] | activity at 30 min [6] | IC50 [7] | activity at 30 min ([7]; phenacetin 40 μM, 30 min)
CC(=O)OC1C(=O)C2=C(C(=O)CC3C(C)(C)C(=O)CCC23C)C2(C)C(=O)CC(C(C)CC(=O)CC(C)C(=O)O)C12C (stereo not shown) [Compound 50] | 96.49±3.97% | 77.48±4.68% | 93.94±6.92% | 89.71±3.49% | 116.59±7.39% | 98.83±1.66% | 62.18±2.53% | – | – | – | – | – | – | – | –
CC1(C)CCC2(C(=O)O)CCC3(C)C(=C2C1)C=CC1C2(C)CCC(O)C(C)(C)C2CCC13C (stereo not shown) [Compound 36] | – | – | – | – | – | – | – | 82.9 ± 2.75% | 88.6 ± 6.9% | 72.7 ± 10.4% | 87 ± 1.46% | 84.38 ± 0.53% | 55.4 ± 1.19% | – | 81.9 ± 5.81%
CC(=O)OC1C(=O)C2=C(C(=O)CC3C2(C)CCC(O)C3(C)C)C2(C)C(=O)CC(C3(C)CCC(=O)O3)C12C (stereo not shown) [Compound 56] | – | – | – | – | – | – | – | 92.5 ± 0.99% | 84.1 ± 0.94% | 86.9 ± 1.32% | 72.3 ± 1.11% | 109 ± 6.43% | 82.8 ± 1.1% | 34.2 ± 6.9 µM | 56 ± 0.69%

More lines, now with the values ahead:

Residual activity (%) CYP2C9 ([1]; HLM 0.5 mg/mL) | Residual activity (%) CYP2B6 ([2]; HLM 0.5 mg/mL) | Residual activity (%) CYP2D6 ([3]; HLM 0.5 mg/mL, dextromethorphan 5 μM, 30 min) | Residual activity (%) CYP2A6 ([4]; HLM 0.5 mg/mL, coumarin 2 μM, 30 min) | Residual activity (%) CYP2C19 ([5]; HLM 0.5 mg/mL) | Residual activity (%) CYP3A4 ([6]; HLM 0.5 mg/mL) | Residual activity (%) CYP1A2 ([7]; HLM 0.5 mg/mL, phenacetin 40 μM, 30 min) | activity at 30 min [1] | activity at 30 min [2] | activity at 30 min [3] | activity at 30 min [4] | activity at 30 min [5] | activity at 30 min [6] | IC50 [7] | activity at 30 min ([7]; phenacetin 40 μM, 30 min) | SMILES
– | – | – | – | – | – | – | 90 ± 1.36% | 76.6 ± 7.68% | 99.4 ± 3.9% | 91.89 ± 0.88% | 85.5 ± 2.57% | 97.6 ± 2.29% | 21.8 ± 1.15 µM | 54.4 ± 8.91% | CC(=CC(=O)CC(C)C(=O)O)C1CC(=O)C2(C)C3=C(C(=O)C(O)C12C)C1(C)CCC(O)C(C)(C)C1CC3=O (stereo not shown) [Compound 17]
– | – | – | – | – | – | – | 90 ± 1.41% | 90.6 ± 2.12% | 104 ± 4.79% | 88.05 ± 0.74% | 74.81 ± 0.08% | 94.6 ± 1.15% | 12.8 ± 1.47 µM | 32.5 ± 1% | CC(=O)OC1C(=O)C2=C(C(O)CC3C2(C)CCC(O)C3(C)C)C2(C)C(=O)CC(C(C)=CC(=O)CC(C)C(=O)O)C12C (stereo not shown) [Compound 7]
– | – | – | – | – | – | – | 87.1 ± 3.47% | 79.86 ± 0.32% | 79.7 ± 8.99% | 78.38 ± 0.16% | 62.77 ± 0.26% | 79.6 ± 5.54% | 16 ± 4.05 µM | 35.4 ± 3.33% | CC(CC(=O)CC(C)C1CC(=O)C2(C)C3=C(C(=O)CC12C)C1(C)CCC(O)C(C)(CO)C1CC3O)C(=O)O (stereo not shown) [Compound 2]
